Measurements reported in patent US8178688B2, “Benzamidine derivatives, process for the preparation thereof and pharmaceutical composition comprising the same” (Dong Wha Pharmaceutical Co., Ltd., priority 2004, dated 2012).

Key:
cells = test: Cytotoxicity test (MTT); type: cell-based; settings: 10^−6M, 72 hrs, compared with the control group
How it was run: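 Benzamidine derivatives were checked for cytotoxicity with an MTT assay. Test substances were diluted in a suitable solvent to 10^−2M. Cells were seeded at 1×10^4 cell/100 μL per well in 96-well microplates and grown for 72 hrs. During the final 4 hrs, 25 μL of MTT (2 mg/mL in PBS) was added. Plates were then centrifuged, the medium removed, formazan dissolved in 100 μL DMSO, and absorbance read at 540 nm.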

Cc1sc(-c2cccnc2)nc1-c1ccc(OCCCCCOc2ccc(C(=N)NO)cc2)cc1 [Example 13, N-hydroxy-4-(5-[4-(5-methyl-2-pyridin-3-yl-1,3-thiazol-4-yl)phenoxy]pentoxy)-benzamidine]
melting point: 138 to 150 °C

CC(C)c1nc(-c2ccc(OCCCCCOc3ccc(C(=N)NO)cc3)cc2)c(CC2CCCC2)s1 [Example 47, N-hydroxy-4-(5-[4-(5-cyclopentylnnethyl-2-isopropyl-1,3-thiazol-4-yl)phenoxy]pentoxy)-benzamidine]
Survival rates of the cells (cells; MC3T3-E1 cells): 54.2%
Survival rates of the cells (cells; ST2 cells): 24.0%
